Reference: patent publication US8940896B2, “Tetra-cyclic carboline derivatives useful in the inhibition of angiogenesis” (PTC Therapeutics, Inc., priority 2004, dated 2015)

Test system: VEGF
Experiment: Hypoxia-inducible endogenous VEGF expression, VEGF ELISA assay
Assay type: cell-based
Conditions: HeLa cells, hypoxic conditions (1% O2, 5% CO2), VEGF in conditioned media
Procedure: The ability of the compounds of the invention to modulate hypoxia-inducible endogenous VEGF expression may be analyzed as follows. VEGF protein levels may be monitored by an ELISA assay (R&D Systems). Briefly, HeLa cells may be cultured for 24-48 hours under hypoxic conditions (1% O2, 5% CO2, balanced with nitrogen) in the presence or absence of a compound of the invention. The conditioned media may then be assayed by ELISA, and the concentration of VEGF calculated from the standard ELISA curve of each assay.
A dose-response analysis may be performed using the ELISA assay and conditions described above. The conditions for the dose-response ELISA are analogous to those described above. A series of, e.g., seven different concentrations may be analyzed. In parallel, a dose-response cytotoxicity assay may be performed using CellTiter Glo (Promega) under the same conditions as the ELISA to ensure that the inhibition of VEGF expression was not due to the cytotoxicity. Dose-response curves may be plotted using percentage inhibition versus concentration of the compound, and EC50 and CC50 values may be generated for each compound with the maximal inhibition set as 100% and the minimal inhibition as 0%.

Structure (SMILES) | EC50 [µM] | EC50 (Homo sapiens, HeLa) [µM]
C=CCN1C(=O)C2Cc3c([nH]c4ccccc34)C(c3ccccc3OC)N2C1=S (stereo not shown) [Compound 85] | > 1 | 
CC(C)N1C(=O)C2Cc3c([nH]c4ccc(Br)cc34)C(c3ccc(N4CCN(C)CC4)cc3)N2C1=S (stereo not shown) [Compound 129] |  | 0.008 to 0.04
COc1ccc(C2c3[nH]c4ccc(Br)cc4c3CC3C(=O)N(c4cccc(Cl)c4)C(=S)N32)cc1 (stereo not shown) [Compound 165] |  | < 0.008
Cc1ccc(N2C(=O)C3Cc4c([nH]c5ccc(Br)cc45)C(c4ccc(C(C)C)cc4)N3C2=S)cc1 (stereo not shown) [Compound 96] |  | < 0.008
CN1C(=O)C2Cc3c([nH]c4ccccc34)C(c3cccc(Cl)c3)N2C1=S (stereo not shown) [Compound 58] |  | > 1
COc1cccc(C2c3[nH]c4ccccc4c3CC3C(=O)N(C4CCCCC4)C(=S)N32)c1 (racemic) [Compound 2] |  | > 1
O=C1C2Cc3c([nH]c4ccc(Br)cc34)C(c3ccc(OCCN4CCOCC4)cc3)N2C(=S)N1CC1CCCO1 (stereo not shown) [Compound 106] |  | 0.04 to 0.2
COc1ccc(C2c3[nH]c4ccc(Br)cc4c3CC3C(=O)N(c4ccccc4Cl)C(=S)N32)cc1 (stereo not shown) [Compound 164] |  | 0.04 to 0.2
O=C1C2Cc3c([nH]c4ccccc34)C(C3CCCCC3)N2C(=S)N1C1CCCC1 (stereo not shown) [Compound 11] |  | 0.2 to 1
CCOC(=O)CC(C)N1C(=O)C2Cc3c([nH]c4ccc(Br)cc34)C(c3ccc(OC)cc3)N2C1=S (stereo not shown) [Compound 145] |  | < 0.008
COC(=O)c1cccc(N2C(=O)C3Cc4c([nH]c5ccccc45)C(c4ccc(OC)cc4)N3C2=S)c1 (stereo not shown) [Compound 51] |  | > 1
CC(C)N1C(=O)C2Cc3c([nH]c4ccc(Br)cc34)C(c3ccc(-c4ccncc4)cc3)N2C1=S (stereo not shown) [Compound 130] |  | 0.04 to 0.2
COc1ccc(C2c3[nH]c4ccc(Br)cc4c3CC3C(=O)N(c4ccc(F)cc4)C(=S)N32)cc1 (stereo not shown) [Compound 168] |  | < 0.008
O=C1C2Cc3c([nH]c4ccc(Cl)cc34)C(c3ccc4c(c3)OCO4)N2C(=S)N1C1CCCCC1 (stereo not shown) [Compound 25] |  | < 0.008
COc1ccccc1C1c2[nH]c3ccccc3c2CC2C(=O)N(CCc3ccccc3)C(=S)N21 (stereo not shown) [Compound 94] |  | > 1
COc1cccc(C2c3[nH]c4ccc(Br)cc4c3CC3C(=O)N(C4CCCCC4)C(=S)N32)c1 (stereo not shown) [Compound 28] |  | 0.008 to 0.04
COCCCN1C(=O)C2Cc3c([nH]c4ccc(Cl)cc34)C(c3ccc(OCCOC)cc3)N2C1=S (stereo not shown) [Compound 110] |  | 0.008 to 0.04

Structure (SMILES) | EC50 [µM] | EC50 (Homo sapiens, HeLa) [µM]
CCN1C(=O)C2Cc3c([nH]c4ccc(C)cc34)C(c3ccc(OC)cc3)N2C1=O (stereo not shown) [Compound 33] |  | 0.04 to 0.2
COc1ccc(C2c3[nH]c4ccc(Br)cc4c3CC3C(=O)N(C4CCCC4)C(=S)N32)cc1 (stereo not shown) [Compound 21] |  | < 0.008
O=C1C2Cc3c([nH]c4ccccc34)C(C3CCCCC3)N2C(=S)N1C1CCCCC1 (stereo not shown) [Compound 1] | > 1 | 
COCCN(C)CCCOc1ccc(C2c3[nH]c4ccc(Br)cc4c3CC3C(=O)N(C(C)C)C(=S)N32)cc1 (stereo not shown) [Compound 158] |  | < 0.008
COc1ccc(C2c3[nH]c4ccccc4c3CC3C(=O)N(C)C(=S)N32)c(OC)c1OC (stereo not shown) [Compound 73] |  | > 1
CC(C)NCCCOc1ccc(C2c3[nH]c4ccc(Br)cc4c3CC3C(=O)N(C(C)C)C(=S)N32)cc1 (stereo not shown) [Compound 155] |  | < 0.008
CCN1C(=O)C2Cc3c([nH]c4ccc(Br)cc34)C(c3ccc(OC)cc3)N2C1=O (stereo not shown) [Compound 55] |  | > 1
CN(C)CCCOc1ccc(C2c3[nH]c4ccc(Br)cc4c3CC3C(=O)N(C4CCCCC4)C(=S)N32)cc1 (stereo not shown) [Compound 112] |  | < 0.008
CC(C)N1C(=O)C2Cc3c([nH]c4ccc(Br)cc34)C(c3ccc(OCCCN4CCCC4)cc3)N2C1=S (stereo not shown) [Compound 150] |  | < 0.008
COc1ccc(C2c3[nH]c4ccc(OC)cc4c3CC3C(=O)N(C4CCCCC4)C(=O)N32)cc1 (stereo not shown) [Compound 24] |  | 0.04 to 0.2
COc1ccc(C2c3[nH]c4ccccc4c3CC3C(=O)N(c4ccc(C(C)C)cc4)C(=O)N32)cc1 (stereo not shown) [Compound 35] |  | 0.2 to 1
CC(C)N1C(=O)C2Cc3c([nH]c4ccc(Br)cc34)C(c3ccc(OCCCN4CCCCC4)cc3)N2C1=S (stereo not shown) [Compound 151] |  | < 0.008
COc1ccc(C2c3[nH]c4ccccc4c3CC3C(=O)N(c4ccc(C)cc4)C(=S)N32)cc1 (stereo not shown) [Compound 46] |  | > 1
COc1ccc(C2c3[nH]c4ccc(Br)cc4c3CC3C(=O)N(c4ccc(OC(C)=O)cc4)C(=S)N32)cc1 (stereo not shown) [Compound 141] |  | < 0.008
COc1ccc(C2c3[nH]c4ccc(Br)cc4c3CC3C(=O)N(c4ccc(C)cc4)C(=S)N32)cc1 (stereo not shown) [Compound 171] |  | < 0.008
CC(C)N1C(=O)C2Cc3c([nH]c4ccc(Br)cc34)C(c3ccc(OCCCn4cncn4)cc3)N2C1=S (stereo not shown) [Compound 184] |  | < 0.008
C=CCN1C(=O)C2Cc3c([nH]c4ccccc34)C(c3cccc(Cl)c3)N2C1=S (stereo not shown) [Compound 67] |  | > 1
